Results taken from US20180078615A1, “USE OF CCL2 TO INHIBIT ABNORMAL UTERINE BLEEDING” (UNIVERSITY OF SOUTH FLORIDA, priority 2015, published 2018).

How the values were obtained:
VSMCs [1] = assay: VSMC proliferation assay by BrdU incorporation; type: cell-based, human; conditions: for BrdU incorporation: control 0.86±0.03
Description: VSMCs were grown in 96-well plates or 8-well chamber slides and incubated with 10^−7 M of MPA (Sigma-Aldrich) or ETO (Organon) or P4 (Sigma-Aldrich) or vehicle±rCCL2 (R&D Systems)±STAT1 inhibitor, 5′-methyl-thioadenosine (MTA; EMD Millipore) (19) for 48 or 72 h. VSMCs were then analyzed for apoptosis by an ELISA based apoptosis kit (Roche) or cleaved-caspase 3 immunostaining. VSMC proliferation was measured by BrdU incorporation Kit (Cell Signaling). (See further details in SI Materials and Methods).
VSMCs were thawed and cultured in T-75 cell culture flasks in medium 231 (M231; Life Technologies) with smooth muscle growth supplement (5% FBS; 2 ng/mL human basic fibroblast growth factor, 0.5 ng/mL human epidermal growth factor, 5 ng/mL heparin, 0.2 μg/mL insulin and 5 μg/mL BSA; Life Technologies) with 100 U/mL penicillin, 100 μg/mL streptomycin, and 0.25 μg/mL fungizone. Confluent VSMCs were washed twice with 1×PBS to remove residual serum, and then passaged (5,000 cells per well) in 96-well plates and incubated in parallel in M231 with 1% charcoal striped FBS with 0.1% ethanol (vehicle, control), 10^−7 M MPA (Sigma-Aldrich), 10^−7 M ETO (Organon), or 10^−7 M P4 (Sigma-Aldrich)±rCCL2 (monocyte chemotactic protein-1; R&D Systems)±STAT1 inhibitor, 5′-methyl-thioadenosine (MTA; EMD Millipore) for 48 or 72 h.
BrdU (Cell Signaling) 1× in 100-μL M231 was added to each well during the final 24 h of incubation. At the end of 48- or 72-h incubation period, medium was removed and the wells washed twice with ice-cold PBS. VSMC proliferation was measured using BrdU cell proliferation Kit (Cell Signaling) at room temperature. Cells was incubated in 100 μL per well of the fixing/denaturing solution for 30 min, and then replaced by 100 μL per well BrdU detection antibody solution for 1 h. Following three rinses with wash buffer, plates were incubated in HRP-conjugated secondary antibody (100 μL per well) for 30 min. After three additional rinses with wash buffer, tetramethylbenzidine substrate solution (100 μL per well) was added for 20 min and the reaction stopped by adding 100 μL per well STOP solution. Absorbance was measured at 450 nm using Spectra Max190 microplate reader (Molecular Devices) to detect BrdU incorporation in each well.

endometrial VSMCs = assay: αSMA and PCNA double-immunostaining of endometrium of oophorectomized guinea pigs (OVX-GPs); type: in vivo, guinea pig; conditions: 21-d time-release pellets, mean±SEM
Text: After receiving written informed consent at New York University under Institutional Review Board approval, paraffin sections were derived from banked paired endometrial tissues obtained before and after Depo therapy by […] biopsy from each reproductive age woman with regular menstrual cycles during the secretory phase (n=6). Based on an established animal model for LAPC-induced AUB in humans (9), nulliparous adult female pigmented GPs (weighing 525-775 g) were used in experimental procedures conforming to National Health and Medical Research Council Guidelines of Australia and approved by the Animal Ethics Committee of The University of Western Australia. GPs (n=24) were subjected to bilateral OVX and given subcutaneous 21-d time-release pellets (Innovative Research of America) containing MPA (50 mg/d; n=6) or 17β-Estradiol (E2) (0.1 mg/d; n=6), both MPA and E2 (n=6), or no pellets (n=6). On day 20 of exposure to the pellets, GPs were killed with pentobarbital and uterine tissues fixed in 10% formalin and processed for paraffin embedding. In vitro experiments used aortic VSMCs from premenopausal women (n=2) (Life Technologies). Paraffin sections (5 μm) from paired pre- vs. post-Depo treated human or GP endometria were deparaffinized, boiled in citrate buffer (pH: 6.0) and then incubated in methanol containing 3% H2O2. Following 10% normal horse serum blocking (Vector Labs), slides were incubated overnight at 4° C. with mouse anti-PCNA monoclonal antibody (EMD Millipore). After several rinses in Tris-buffered saline containing 0.1% tween-20 (TBS-T; pH 7.6) slides were then incubated with biotinylated anti-mouse IgG (Vector Labs) for 30 min, then with a streptavidin-peroxidase complex (Elite ABC kit; Vector Labs) for 30 min and with diaminobenzidine (DAB; Vector Labs) for 3 min. […] Slides were counterstained by Hematoxylin and evaluated by histological scoring (HSCORE), as described previously (34). (See details for HSCORE evaluation for αSMA immunoreactivity and PCNA quantitation in SI Materials and Methods). Staining intensity for α-SMA was semiquantitatively evaluated by Q:1 HSCORE (1). […] An HSCORE value was determined for each specimen by using the formula HSCORE=ΣPi (i+1), where Pi is the percentage of stained cells in each intensity category (i.e., i=1, 2, or 3). Quantitation of PCNA immunostaining was determined by counting the number of PCNA^+ (brown) and PCNA^- cell nuclei (blue) in VSMCs (αSMA immunostained cells) and obtaining the ratio of numbers of PCNA^+ cell nuclei to total αSMA^+ cells. For each slide, three different fields were evaluated microscopically at 200× magnification. Slides were evaluated at different times by two investigators blinded to tissue source, and the average HSCORE or percentage of cells with PCNA^+ nuclei to total αSMA^+ cells used.

VSMCs [2] = assay: Transwell insert migration assay; type: cell-based, human; conditions: coincubation with 10 ng/mL rCCL2, 12 h
Description: VSMCs (75,000 cells/200 μL) were suspended in M231 containing 1% charcoal striped FBS and either 0.1% ethanol (vehicle control) or the corresponding steroids and seeded onto insert wells (transwell filter with 12-μm pores; EMD Millipore). The inserts were then placed in 24-well plates containing 500 μL M231 with 1% charcoal striped FBS. After 12 h, cells remaining on the upper surface of the filter were removed with a cotton swab. Migrated cells were trypsinized, centrifuged, and resuspended in 200 μL of M231 medium. The cell suspensions were mixed with 200 μL 10% ethanol containing 0.4% Trypan blue dye and the live cell number was counted by Countess Automated Cell Counter (Invitrogen). See further details in SI Materials and Methods.
Cultured VSMCs were grown in T-75 cell culture flasks in M231 (Life Technologies) with smooth muscle growth supplement (Life Technologies) with 100 U/mL penicillin, 100 μg/mL streptomycin, 0.25 μg/mL fungizone. Confluent VSMCs were washed twice with 1×PBS to remove residual serum, and then trypsinized, resuspended (75,000 cells per 200 μL per well) in M231 with 1% charcoal striped FBS with 0.1% ethanol (vehicle, control), 10^−7 M MPA (Sigma-Aldrich), 10^−7 M ETO (Organon), or 10^−7 M P4 (Sigma-Aldrich)±rCCL2 (R&D Systems) and seeded on insert wells (transwell filter with 12-μm pores; EMD Millipore), which were then placed in 24-well plates containing 500 μL M231 with 1% charcoal striped FBS. After 12 h, cells remaining on the upper surface of the filter were removed with a cotton swab. Migrated cells attached to the lower surface of each insert or to the surface of lower wells were collected by trypsinization, followed by centrifugation and resuspension in 200 μL of M231 medium. The cell suspensions were mixed with 200 μL 10% ethanol containing 0.4% Trypan blue dye (selectively stains only dead cells blue, whereas live cells with intact cell membranes remain unstained) for 5 min. A mixture of 100 μL M231 and 100 μL 10% ethanol containing 0.4% Trypan blue dye was used as a negative control. To detect live cell numbers, 10 μL of final cell/Trypan blue dye suspension from each treatment condition was pipetted into Countess Cell Counting Chamber Slide and counted by using Countess Automated Cell Counter (Invitrogen). The counting procedure was performed in duplicate.

Molecule: 5′-methyl-thioadenosine [MTA]
- effect on rCCL2 reversal of progestin-inhibited BrdU incorporation (VSMCs [1]; 100 μm MTA with 10 ng/mL rCCL2 and MPA or ETO): abolished

Molecule: C[C@]12CC[C@@H]3c4ccc(O)cc4CC[C@H]3[C@@H]1CC[C@@H]2O [E2, 17β-Estradiol]
- PCNA+ endometrial VSMCs (endometrial VSMCs; n=6, control 11.2%±2.3): 36.8%±2.7
- αSMA HSCORE (endometrial VSMCs; n=6, control 135.2±26.0): 212.7±14.6

Molecule: rCCL2: recombinant chemokine (C-C motif) ligand 2 (monocyte chemotactic protein-1; R&D Systems)
- effect on inhibition of BrdU incorporation by ETO (VSMCs [1]; 10 ng/mL rCCL2 added to 10^−7 M ETO): reversed
- effect on inhibition of BrdU incorporation by MPA (VSMCs [1]; 10 ng/mL rCCL2 added to 10^−7 M MPA): reversed
- BrdU incorporation (VSMCs [1]; rCCL2 1 ng/mL): 1.05±0.05
- BrdU incorporation (VSMCs [1]; rCCL2 10 ng/mL): 1.21±0.05
- effect on inhibition of VSMC migration by ETO (VSMCs [2]): did not reverse
- effect on inhibition of VSMC migration by MPA (VSMCs [2]): partially reversed
- effect on inhibition of VSMC migration by P4 (VSMCs [2]): did not reverse
